The first test has as its target T1, human LH receptor (Homo sapiens, UniProt P22888).
T1 construct: expressed in transfected cells; host or cells: Chinese Hamster Ovary (CHO) cells, stably transfected; cotransfected with a CRE-luciferase reporter
As to the kind of experiment: CHO-LH in vitro bioactivity (CRE-luciferase reporter, LH agonistic activity). In kind it is cell-based.
Conditions: not given
As to the method: LH agonistic activity of compounds was tested in Chinese Hamster Ovary (CHO) cells stably transfected with the human LH receptor and cotransfected with a cAMP responsive, element (CRE)/promotor directing the expression of a firefly luciferase reporter gene. Binding of ligand to the Gs-coupled LH receptor will result in an increase of cAMP, which in turn will induce an increased transactivation of the luciferase reporter construct. The luciferase signal was quantified using a luminescence counter. For test compounds, EC50 values (concentration of test compound causing half-maximal (50%) stimulation) were calculated. For that purpose the software program GraphPad PRISM, version 3.0 (GraphPad software Inc., San Diego) was used.
For orientation: In a reporter assay the amount or activity of a reporter protein is the signal.
T1 sequence (P22888 27-699): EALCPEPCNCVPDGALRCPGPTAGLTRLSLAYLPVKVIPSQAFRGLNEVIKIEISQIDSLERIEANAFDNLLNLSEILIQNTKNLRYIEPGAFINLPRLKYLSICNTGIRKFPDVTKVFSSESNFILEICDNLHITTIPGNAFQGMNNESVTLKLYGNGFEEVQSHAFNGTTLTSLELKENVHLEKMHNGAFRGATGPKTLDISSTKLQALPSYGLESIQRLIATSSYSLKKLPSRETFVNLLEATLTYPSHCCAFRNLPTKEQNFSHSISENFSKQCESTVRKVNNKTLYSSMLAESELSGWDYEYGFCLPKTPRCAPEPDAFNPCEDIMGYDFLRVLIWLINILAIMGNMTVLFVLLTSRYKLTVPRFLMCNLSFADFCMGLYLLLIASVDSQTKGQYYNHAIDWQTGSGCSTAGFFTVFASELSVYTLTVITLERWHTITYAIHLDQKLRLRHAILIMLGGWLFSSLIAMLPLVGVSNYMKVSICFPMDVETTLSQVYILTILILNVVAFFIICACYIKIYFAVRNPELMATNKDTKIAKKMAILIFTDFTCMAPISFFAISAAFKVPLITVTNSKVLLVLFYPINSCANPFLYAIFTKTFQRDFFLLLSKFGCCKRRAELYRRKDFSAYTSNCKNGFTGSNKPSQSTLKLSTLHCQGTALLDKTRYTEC
Take `CCN(CC)C(=O)Oc1cccc(-c2nc(SC)nc3sc(C(=O)NC(C)(C)C)c(N)c23)c1` [Example 7]: the EC50 was < 10 nM.

The same test, now with this note: CHO cells stably transfected with the human LH receptor and cotransfected with CRE/promotor firefly luciferase reporter; luciferase signal; read-out: EC50 value (concentration of test compound causing half-maximal (50%) stimulation).
As to `CCOC(=O)Nc1cccc(-c2nc(SC)nc3sc(C(=O)NC(C)(C)C)c(N)c23)c1` [Example 18, tert-Butyl 5-amino-2-methylthio-4-(3-(ethoxycarbonylamino)-phenyl)-thieno[2,3-d]pyrimidine-6-carboxamide], the EC50 is < 10 nM.
The same measure, in the same setting: the value for `CSc1nc(-c2cccc(NC(=O)N3CC=CCC3)c2)c2c(N)c(C(=O)NC(C)(C)C)sc2n1` [Example 23, tert-Butyl 5-amino-2-methylthio-4-(3-(1,2,3,6-tetrahydropyridinocarbonylamino)-phenyl)-thieno[2,3-d]pyrimidine-6-carboxamide] was < 10 nM; that for `CSc1nc(-c2cccc(NC(=O)N3CCOCC3)c2)c2c(N)c(C(=O)NC(C)(C)C)sc2n1` [Example 21] was < 10 nM; that for `CN(C)C(=O)Nc1cccc(-c2nc(-c3ccccc3)nc3sc(C(=O)NC(C)(C)C)c(N)c23)c1` [Example 32, tert-Butyl 5-amino-2-phenyl-4-(3-((N,N-dimethylamino)-carbonylamino)-phenyl)-thieno[2,3-d]pyrimidine-6-carboxamide] was < 10 nM.
The same measure, in the same setting: next, `C=CCOC(=O)Nc1cccc(-c2nc(SC)nc3sc(C(=O)NC(C)(C)C)c(N)c23)c1` [Example 16, tert-Butyl 5-amino-2-methylthio-4-(3-(allyloxycarbonylamino)-phenyl)-thieno[2,3-d]pyrimidine-6-carboxamide]: < 10 nM; `COC(=O)Nc1cccc(-c2nc(SC)nc3sc(C(=O)NC(C)(C)C)c(N)c23)c1` [Example 15, tert-Butyl 5-amino-2-methylthio-4-(3-(methoxycarbonylamino)-phenyl)-thieno[2,3-]pyrimidine-6-carboxamide]: < 10 nM.

Values taken from patent publication US7229990B2, “Bicyclic heteroaromatic compounds” (N.V. Organon, priority 2000, dated 2007).
